US20210069145A1, “COMPOSITIONS AND METHODS FOR REDUCING A FATTY ACID DESATURATION INDEX IN A SUBJECT IN NEED THEREOF” (Amarin Pharmaceuticals Ireland Limited, priority 2013, published 2021)

Test system: Lipoprotein Particle Concentrations
Assay: Lipoprotein particle concentrations, 12-week double-blind placebo-controlled study of >96% E-EPA in statin-treated patients
Assay type: in vivo, human
Settings: 12 weeks; for IDL, Change From Baseline, % / IDL, End of Treatment / Large HDL, Change From Baseline, % / Large HDL, End of Treatment / Large LDL, Change From Baseline, % / Large LDL, End of Treatment / Large VLDL, Change From Baseline, % / Large VLDL, End of Treatment / Medium HDL, Change From Baseline, % / Medium HDL, End of Treatment / Medium VLDL, Change From Baseline, % / Medium VLDL, End of Treatment / Small HDL, Change From Baseline, % / Small HDL, End of Treatment / Small LDL, Change From Baseline, % / Small LDL, End of Treatment / Small VLDL, Change From Baseline, % / Small VLDL, End of Treatment / Total HDL, Change From Baseline, % / Total HDL, End of Treatment / Total LDL, Change From Baseline, % / Total LDL, End of Treatment / Total VLDL, Change From Baseline, % / Total VLDL, End of Treatment: median
Protocol: A multi-center, placebo-controlled, randomized, double-blind, 12-week study was performed to evaluate the efficacy and safety of >96% E-EPA in patients with fasting triglyceride levels ≥200 mg/dl and <500 mg/dl despite statin therapy (the mean of two qualifying entry values needed to be ≥185 mg/dl and at least one of the values needed to be ≥200 mg/dl). The primary objective of the study was to determine the efficacy of >96% E-EPA 2 g daily and 4 g daily, compared to placebo, in lowering fasting TG levels in patients with high risk for cardiovascular disease and with fasting TG levels ≥200 mg/dl and <500 mg/dl, despite treatment to LDL-C goal on statin therapy.
The population for this study was men and women >18 years of age with a body mass index ≤45 kg/m^2 with fasting TG levels greater than or equal to 200 mg/dl and less than 500 mg/dl and on a stable does of statin therapy (with or without ezetimibe). The statin was atorvostatin, rosuvastatin or simvastatin. The dose of statin must have been stable for ≥4 weeks prior to the LDL-C/TG baseline qualifying measurement for randomization. The statin dose was optimized such that the patients are at their LDL-C goal at the LDL-C/TG baseline qualifying measurements. The same statin at the same dose was continued until the study ended.
Approximately 702 patients were randomized at approximately 80 centers in the U.S. The study was a 18- to 20-week, Phase 3, multi-center study consisting of 2 study periods: (1) A 6- to 8-week screening period that included a diet and lifestyle stabilization, a non-statin lipid-altering treatment washout, and an LDL-C and TG qualifying period and (2) A 12-week, double-blind, randomized, placebo-controlled treatment period.
After confirmation of qualifying fasting LDL-C and TG values, eligible patients entered a 12-week, randomized, double-blind treatment period. At Visit 4 (Week 0), patients were randomly assigned to 1 of the following treatment groups: • >96% E-EPA 2 g daily, • >96% E-EPA 4 g daily, or • Placebo.
During the double-blind treatment period, patients were to take 2 capsules (>96% E-EPA or matching placebo) in the morning and 2 capsules in the evening for a total of 4 capsules per day. • Patients in the >96% E-EPA 2 g/day treatment group received 1>96% E-EPA 1 g capsule and 1 matching placebo capsule in the morning and in the evening. • Patients in the >96% E-EPA 4 g/day treatment group received 2>96% E-EPA 1 g capsules in the morning and evening.
The primary efficacy variable for the double-blind treatment period was percent change in TG from baseline to Week 12 endpoint. The secondary efficacy variables for the double-blind treatment period included the following: • Percent changes in total cholesterol (TC), high-density lipoprotein cholesterol (HDL-C), LDL-C, calculated non-HDL-C, and very low-density lipoprotein cholesterol (VLDL-C) from baseline to Week 12 endpoint; • Percent change in very low-density lipoprotein TG from baseline to Week 12; • Percent changes in apolipoprotein A-I (apo A-I), apolipoprotein B (apo B), and apo A-I/apo B ratio from baseline to Week 12; • Percent changes in lipoprotein(a) from baseline to Week 12; • Percent changes in LDL particle number and size, measured by nuclear magnetic resonance, from baseline to Week 12; • Percent change in remnant-like particle cholesterol from baseline to Week 12; • Percent change in oxidized LDL from baseline to Week 12; • Changes in FPG and HbA1c from baseline to Week 12; • Change in insulin resistance, as assessed by the homeostasis model index insulin resistance, from baseline to Week 12; • Percent change in lipoprotein associated phospholipase A2 (Lp-PLA2) from baseline to Week 12; • Change in intracellular adhesion molecule-1 from baseline to Week 12; • Change in interleukin-2 from baseline to Week 12; • Change in plasminogen activator inhibitor-1 from baseline to Week 12. […]

[1] = 2 g/day, placebo-adjusted Hodges-Lehmann median
[2] = 4 g/day, placebo-adjusted Hodges-Lehmann median
[3] = 4 g/day, placebo-adjusted Hodges-Lehmann median, listed as Ethyl Eicosapentaenoate
[4] = 4 g/day, placebo-adjusted Hodges-Lehmann median, listed as IPE

`CC/C=C\C/C=C\C/C=C\C/C=C\C/C=C\CCCC(=O)OCC` [ethyl eicosapentaenoate, all-cis eicosa-5,8,11,14,17-pentaenoic acid ethyl ester] was tested, and the “IDL, Change From Baseline, %” value (2 g/day, n = 222) was 10.5%, the “IDL, End of Treatment” value (2 g/day, n = 222) was 63.5 nmol/L and the “Large HDL, Change From Baseline, %” value (2 g/day, n = 222) was −4.0%. The “Large HDL, End of Treatment” value (2 g/day, n = 222) was 2.4 µmol/L, the “Large LDL, Change From Baseline, %” value (2 g/day, n = 222) was 47.7% and the “Large LDL, End of Treatment” value (2 g/day, n = 222) was 202.0 nmol/L. For the same molecule, the “Large VLDL, Change From Baseline, %” value (2 g/day, n = 222) was −19.7%, the “Large VLDL, End of Treatment” value (2 g/day, n = 222) was 10.0 nmol/L and the “Medium HDL, Change From Baseline, %” value (2 g/day, n = 222) was 2.9%. The “Medium HDL, End of Treatment” value (2 g/day, n = 222) was 7.2 µmol/L, the “Medium VLDL, Change From Baseline, %” value (2 g/day, n = 222) was 7.9% and the “Medium VLDL, End of Treatment” value (2 g/day, n = 222) was 59.6 nmol/L. For the same molecule, the “Small HDL, Change From Baseline, %” value (2 g/day, n = 222) was −0.6%, the “Small HDL, End of Treatment” value (2 g/day, n = 222) was 23.8 µmol/L and the “Small LDL, Change From Baseline, %” value (2 g/day, n = 222) was −4.3%. For the same molecule, the “Small LDL, End of Treatment” value (2 g/day, n = 222) was 920.5 nmol/L, the “Small VLDL, Change From Baseline, %” value (2 g/day, n = 222) was 22.1% and the “Small VLDL, End of Treatment” value (2 g/day, n = 222) was 49.6 nmol/L. The “Total HDL, Change From Baseline, %” value (2 g/day, n = 222) was 0.7%, the “Total HDL, End of Treatment” value (2 g/day, n = 222) was 34.7 µmol/L and the “Total LDL, Change From Baseline, %” value (2 g/day, n = 222) was 4.7%. For the same molecule, the “Total LDL, End of Treatment” value (2 g/day, n = 222) was 1215 nmol/L, the “Total VLDL, Change From Baseline, %” value (2 g/day, n = 222) was 12.0% and the “Total VLDL, End of Treatment” value (2 g/day, n = 222) was 122.4 nmol/L. For the same molecule, the “IDL, Median Change From Baseline IPE 2 g/day vs Placebo, %” value [1] was 8.6%, the “Large HDL, Median Change From Baseline IPE 2 g/day vs Placebo, %” value [1] was −13.5% and the “Large LDL, Median Change From Baseline IPE 2 g/day vs Placebo, %” value [1] was 26.5%. For the same molecule, the “Large VLDL, Median Change From Baseline IPE 2 g/day vs Placebo, %” value [1] was −24.2%, the “Medium HDL, Median Change From Baseline IPE 2 g/day vs Placebo, %” value [1] was −4.5% and the “Medium VLDL, Median Change From Baseline IPE 2 g/day vs Placebo, %” value [1] was 2.6%. The “Small HDL, Median Change From Baseline IPE 2 g/day vs Placebo, %” value [1] was −0.2%, the “Small LDL, Median Change From Baseline IPE 2 g/day vs Placebo, %” value [1] was −14.7% and the “Small VLDL, Median Change From Baseline IPE 2 g/day vs Placebo, %” value [1] was 16.5%. For the same molecule, the “Total HDL, Median Change From Baseline IPE 2 g/day vs Placebo, %” value [1] was −3.1%, the “Total LDL, Median Change From Baseline IPE 2 g/day vs Placebo, %” value [1] was −7.5% and the “Total VLDL, Median Change From Baseline IPE 2 g/day vs Placebo, %” value [1] was 1.8%. The “reduction of median concentration of small LDL particles over baseline when adjusted for placebo control” value (4 g per day) was 13.5%, the “reduction of median concentration of total HDL over baseline when adjusted for placebo” value (4 g per day) was 7.4% and the “reduction of median concentration of total LDL over baseline when adjusted for placebo” value (4 g per day) was 7.7%. For the same molecule, the “reduction of median concentration of total VLDL over baseline when adjusted for placebo” value (4 g per day) was 12.2%, the “IDL, Change From Baseline, %” value (4 g/day, n = 216) was 23.7% and the “IDL, End of Treatment” value (4 g/day, n = 216) was 63.0 nmol/L. For the same molecule, the “Large HDL, Change From Baseline, %” value (4 g/day, n = 216) was −21.6%, the “Large HDL, End of Treatment” value (4 g/day, n = 216) was 1.9 µmol/L and the “Large LDL, Change From Baseline, %” value (4 g/day, n = 216) was 55.2%. The “Large LDL, End of Treatment” value (4 g/day, n = 216) was 172.5 nmol/L, the “Large VLDL, Change From Baseline, %” value (4 g/day, n = 216) was −41.9% and the “Large VLDL, End of Treatment” value (4 g/day, n = 216) was 7.7 nmol/L. The “Medium HDL, Change From Baseline, %” value (4 g/day, n = 216) was 4.2%, the “Medium HDL, End of Treatment” value (4 g/day, n = 216) was 6.9 µmol/L and the “Medium VLDL, Change From Baseline, %” value (4 g/day, n = 216) was −6.9%. For the same molecule, the “Medium VLDL, End of Treatment” value (4 g/day, n = 216) was 49.7 nmol/L, the “Small HDL, Change From Baseline, %” value (4 g/day, n = 216) was −3.9% and the “Small HDL, End of Treatment” value (4 g/day, n = 216) was 23.1 µmol/L. For the same molecule, the “Small LDL, Change From Baseline, %” value (4 g/day, n = 216) was −1.1%, the “Small LDL, End of Treatment” value (4 g/day, n = 216) was 902.5 nmol/L and the “Small VLDL, Change From Baseline, %” value (4 g/day, n = 216) was 8.3%. For the same molecule, the “Small VLDL, End of Treatment” value (4 g/day, n = 216) was 46.8 nmol/L, the “Total HDL, Change From Baseline, %” value (4 g/day, n = 216) was −4.0% and the “Total HDL, End of Treatment” value (4 g/day, n = 216) was 32.6 µmol/L. For the same molecule, the “Total LDL, Change From Baseline, %” value (4 g/day, n = 216) was 3.8%, the “Total LDL, End of Treatment” value (4 g/day, n = 216) was 1191 nmol/L and the “Total VLDL, Change From Baseline, %” value (4 g/day, n = 216) was −2.5%. The “Total VLDL, End of Treatment” value (4 g/day, n = 216) was 110.0 nmol/L, the “IDL, Median Change From Baseline IPE 4 g/day vs Placebo, %” value [2] was 10.0% and the “Large HDL, Median Change From Baseline IPE 4 g/day vs Placebo, %” value [2] was “significantly reduced”. For the same molecule, the “Large LDL, Median Change From Baseline IPE 4 g/day vs Placebo, %” value [2] was “increased”, the “Large VLDL, Median Change From Baseline IPE 4 g/day vs Placebo, %” value [2] was “significantly reduced” and the “Medium HDL, Median Change From Baseline IPE 4 g/day vs Placebo, %” value [2] was −6.5%. For the same molecule, the “Medium VLDL, Median Change From Baseline IPE 4 g/day vs Placebo, %” value [2] was “significantly reduced”, the “Small HDL, Median Change From Baseline IPE 4 g/day vs Placebo, %” value [2] was −2.8% and the “Small LDL, Median Change From Baseline IPE 4 g/day vs Placebo, %” value [2] was “significantly reduced”. The “Small VLDL, Median Change From Baseline IPE 4 g/day vs Placebo, %” value [2] was 2.8%, the “Total HDL, Median Change From Baseline IPE 4 g/day vs Placebo, %” value [2] was “significantly reduced” and the “Total LDL, Median Change From Baseline IPE 4 g/day vs Placebo, %” value [2] was “significantly reduced”. For the same molecule, the “Total VLDL, Median Change From Baseline IPE 4 g/day vs Placebo, %” value [2] was “significantly reduced”, the “Small LDL, Median Change From Baseline IPE 4 g/day vs Placebo, %” value [3] was −13.5% and the “Total HDL, Median Change From Baseline IPE 4 g/day vs Placebo, %” value [3] was −7.4%. For the same molecule, the “Total LDL, Median Change From Baseline IPE 4 g/day vs Placebo, %” value [3] was −7.7%, the “Total VLDL, Median Change From Baseline IPE 4 g/day vs Placebo, %” value [3] was −12.2% and the “Large HDL, Median Change From Baseline IPE 4 g/day vs Placebo, %” value [4] was −31.0%. For the same molecule, the “Large LDL, Median Change From Baseline IPE 4 g/day vs Placebo, %” value [4] was 34.2%, the “Large VLDL, Median Change From Baseline IPE 4 g/day vs Placebo, %” value [4] was −46.4% and the “Medium VLDL, Median Change From Baseline IPE 4 g/day vs Placebo, %” value [4] was −12.1%. For the same molecule, the “Small LDL, Median Change From Baseline IPE 4 g/day vs Placebo, %” value [4] was −13.5%, the “Total HDL, Median Change From Baseline IPE 4 g/day vs Placebo, %” value [4] was −7.4% and the “Total LDL, Median Change From Baseline IPE 4 g/day vs Placebo, %” value [4] was −7.7%. The “Total VLDL, Median Change From Baseline IPE 4 g/day vs Placebo, %” value [4] was −12.2%.
